Laboratory results as given in the NIST ThermoML archive (doi:10.1016/j.jct.2005.03.016).

Assay: xn = mol fraction of the nth substance listed
Conditions: Liquid, Vibrating tube method

CC1CCCCC1 [methylcyclohexane] + CCO
mass density [kg/m3]
Conditions	100 kPa	5000 kPa	10000 kPa	15000 kPa	20000 kPa	25000 kPa	30000 kPa	35000 kPa	40000 kPa	45000 kPa
293.15 K, x2 = 0.75	–	–	–	–	–	–	–	–	–	810
293.15 K, x2 = 0.875	–	–	–	–	–	–	–	–	–	814.6
303.15 K, x2 = 0	760.4	764.7	768.9	772.8	776.6	780.2	783.7	787	790.2	793.3
303.15 K, x2 = 0.052	760.1	764.4	768.6	772.6	776.5	780.1	783.6	786.9	790.1	793.2
303.15 K, x2 = 0.125	760.1	764.4	768.6	772.7	776.5	780.2	783.6	787	790.3	793.4
303.15 K, x2 = 0.25	760.7	765.1	769.4	773.4	777.3	781	784.5	787.9	791.2	794.3
303.15 K, x2 = 0.375	761.9	766.3	770.6	774.7	778.6	782.3	785.8	789.2	792.5	795.7
303.15 K, x2 = 0.5	763.6	768	772.3	776.4	780.3	784	787.6	791	794.3	797.4
303.15 K, x2 = 0.625	765.8	770.2	774.5	778.6	782.5	786.3	789.9	793.3	796.6	799.8
303.15 K, x2 = 0.75	768.9	773.3	777.7	781.8	785.7	789.4	793.1	796.5	799.8	803
303.15 K, x2 = 0.875	773.5	777.9	782.3	786.4	790.3	794	797.6	801.1	804.4	807.6
313.15 K, x2 = 0	751.7	756.2	760.7	764.8	768.8	772.7	776.3	779.8	783.1	786.4
313.15 K, x2 = 0.052	751.1	755.7	760.1	764.4	768.4	772.2	775.9	779.4	782.8	786.1
313.15 K, x2 = 0.125	751	755.7	760.2	764.5	768.5	772.4	776.1	779.6	783	786.3
313.15 K, x2 = 0.25	751.6	756.3	760.9	765.2	769.3	773.2	776.9	780.5	783.9	787.2
313.15 K, x2 = 0.375	752.7	757.4	762	766.4	770.5	774.4	778.1	781.7	785.2	788.5
313.15 K, x2 = 0.5	754.4	759.1	763.7	768.1	772.2	776.1	779.9	783.5	786.9	–
313.15 K, x2 = 0.625	756.7	761.4	766	770.4	774.5	778.4	782.2	785.8	789.3	–
313.15 K, x2 = 0.75	759.9	764.6	769.2	773.6	777.7	781.6	785.4	789	792.5	–
313.15 K, x2 = 0.875	764.7	769.3	773.9	778.3	782.4	786.3	790.1	793.7	797.1	–
